Each structure is given as a SMILES string.

The target in this data set is hERG ion channel (Homo sapiens, UniProt Q12809). Nature of the data set: hERG activity (process of Bridgland-Taylor et al.). It counts as cell-based. As for the experimental part:
hERG activity was assessed using the process described by Bridgland-Taylor, M. H., et al, J. Pharm. Tox. Methods 54 (2006) 189-199.

hERG ion channel, sequence (Q12809 whole entry): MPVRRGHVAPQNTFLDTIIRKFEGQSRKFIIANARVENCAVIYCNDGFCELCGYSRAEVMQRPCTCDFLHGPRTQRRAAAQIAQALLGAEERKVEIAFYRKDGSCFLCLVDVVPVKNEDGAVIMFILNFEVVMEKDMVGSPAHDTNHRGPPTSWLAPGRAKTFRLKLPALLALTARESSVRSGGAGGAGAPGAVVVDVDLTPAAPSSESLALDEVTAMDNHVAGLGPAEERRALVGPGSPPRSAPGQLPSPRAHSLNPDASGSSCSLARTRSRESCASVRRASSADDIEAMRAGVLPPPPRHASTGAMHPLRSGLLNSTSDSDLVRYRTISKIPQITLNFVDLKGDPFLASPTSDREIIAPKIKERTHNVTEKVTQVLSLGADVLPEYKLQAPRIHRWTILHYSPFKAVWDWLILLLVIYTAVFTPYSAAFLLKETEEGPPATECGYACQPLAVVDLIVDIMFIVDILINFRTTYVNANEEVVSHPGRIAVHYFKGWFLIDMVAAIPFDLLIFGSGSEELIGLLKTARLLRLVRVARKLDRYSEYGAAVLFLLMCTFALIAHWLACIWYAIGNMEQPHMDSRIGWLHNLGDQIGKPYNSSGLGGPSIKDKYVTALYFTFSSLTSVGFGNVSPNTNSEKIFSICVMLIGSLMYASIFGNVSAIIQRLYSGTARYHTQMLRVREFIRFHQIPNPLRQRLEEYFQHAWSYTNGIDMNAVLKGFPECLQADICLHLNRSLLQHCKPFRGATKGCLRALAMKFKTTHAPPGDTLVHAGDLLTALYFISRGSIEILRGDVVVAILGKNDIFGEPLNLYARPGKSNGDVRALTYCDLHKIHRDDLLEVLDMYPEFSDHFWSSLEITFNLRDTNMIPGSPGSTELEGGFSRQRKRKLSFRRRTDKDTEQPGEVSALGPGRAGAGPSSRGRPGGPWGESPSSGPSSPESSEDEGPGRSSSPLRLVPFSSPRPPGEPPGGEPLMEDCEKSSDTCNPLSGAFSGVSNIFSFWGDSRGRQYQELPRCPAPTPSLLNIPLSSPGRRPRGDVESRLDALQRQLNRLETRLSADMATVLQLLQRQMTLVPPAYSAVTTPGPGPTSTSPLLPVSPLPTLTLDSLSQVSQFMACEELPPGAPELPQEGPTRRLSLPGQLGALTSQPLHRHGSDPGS

`O=C1c2c(Cl)cc(-c3noc(CN4CCNCC4)n3)cc2CN1Cc1ccc(OC(F)(F)F)cc1` [Example 1, 7-Chloro-5-(5-piperazin-1-ylmethyl-[1,2,4]oxadiazol-3-yl)-2-(4-trifluoromethoxybenzyl)-2,3-dihydroisoindol-1-one] came in with a hERG of 10 µM. As to `O=C1c2c(Cl)cc(-c3noc(CN4CCNCC4)n3)cc2CN1Cc1ccc(Cl)cc1` [Example 2, 7-chloro-2-(4-chlorobenzyl)-5-(5-piperazin-1-ylmethyl-[1,2,4]oxadiazol-3-yl)-2,3-dihydroisoindol-1-one], the hERG worked out at 14 µM. Turning to `Cc1cc(-c2noc(CN3CCNCC3)n2)cc2c1C(=O)N(Cc1ccc(OC(F)(F)F)cc1)C2` [Example 3, 7-methyl-5-(5-piperazin-1-ylmethyl-[1,2,4]oxadiazol-3-yl)-2-(4-trifluoromethoxy-benzyl)-2,3-dihydroisoindol-1-one], the hERG was determined as 13 µM. Then `Cc1cc(-c2noc(CN3CCNCC3)n2)cc2c1C(=O)N(Cc1ccc(Cl)cc1)C2` [Example 4, 2-(4-chlorobenzyl)-7-methyl-5-(5-piperazin-1-ylmethyl-[1,2,4]oxadiazol-3-yl)-2,3-dihydroisoindol-1-one], with 8.9 µM; and `Cc1cc(-c2noc(CN3C[C@@H]4C[C@H]3CN4)n2)cc2c1C(=O)N(Cc1ccc(OC(F)(F)F)cc1)C2` [Example 5, 5-[5-(2,5-diaza-bicyclo[2.2.1]hept-2-ylmethyl)-[1,2,4]oxadiazol-3-yl]-7-methyl-2-(4-trifluoromethoxybenzyl)-2,3-dihydroisoindol-1-one], with 17 µM; and `Cc1cc(-c2noc(CN3CCNCC3)n2)cc2c1C(=O)N([C@@H](C)c1ccc(Cl)cc1)C2` [Example 6, 2-[(S)-1-(4-Chloro-phenyl)-ethyl]-7-methyl-5-(5-piperazin-1-ylmethyl-[1,2,4]oxadiazol-3-yl)-2,3-dihydro-isoindol-1-one], with 14 µM.

As for `Cc1cc(-c2noc(CN3C[C@@H]4C[C@H]3CN4)n2)cc2c1C(=O)N([C@@H](C)c1ccc(Cl)cc1)C2` [Example 7, 2-[(S)-1-(4-Chloro-phenyl)-ethyl]-5-{5-[(1S,4S)-1-(2,5-diaza-bicyclo[2.2.1]hept-2-yl)methyl]-[1,2,4]oxadiazol-3-yl}-7-methyl-2,3-dihydro-isoindol-1-one], the hERG stood at 12 µM.

For `Cc1cc(-c2noc(CN3CCNC[C@H]3C)n2)cc2c1C(=O)N(Cc1ccc(Cl)cc1)C2` [Example 8, 2-(4-chloro-benzyl)-7-methyl-5-[5-(2-methyl-piperazin-1-ylmethyl)-[1,2,4]oxadiazol-3-yl]-2,3-dihydroisoindol-1-one], the hERG was determined as 11 µM.

The compound `Cc1cc(-c2noc(CN3CCNC[C@@H]3C)n2)cc2c1C(=O)N(Cc1ccc(Cl)cc1)C2` [Example 9, 2-(4-chloro-benzyl)-7-methyl-5-[5-(2-methyl-piperazin-1-ylmethyl)-[1,2,4]oxadiazol-3-yl]-2,3-dihydroisoindol-1-one] had a hERG of 11 µM. Then `Cc1cc(-c2noc(CN3CCNC(C)C3)n2)cc2c1C(=O)N(Cc1ccc(Cl)cc1)C2` (centres unmarked) [Example 10, 2-(4-chloro-benzyl)-7-methyl-5-[5-(3-methyl-piperazin-1-ylmethyl)-[1,2,4]oxadiazol-3-yl]-2,3-dihydroisoindol-1-one], with 11 µM; and `CC1(C)CN(Cc2nc(-c3cc(Cl)c4c(c3)CN(Cc3ccc(OC(F)(F)F)cc3)C4=O)no2)CCN1` [Example 11, 7-chloro-5-[5-(3,3-dimethyl-piperazin-1-ylmethyl)-[1,2,4]oxadiazol-3-yl]-2-(4-trifluoromethoxy-benzyl)-2,3-dihydroisoindol-1-one], with 13 µM; and `Cc1cc(-c2noc(C(C)N3CCNCC3)n2)cc2c1C(=O)N(Cc1ccc(OC(F)(F)F)cc1)C2` (centres unmarked) [Example 12, 7-Methyl-5-[5-(1-piperazin-1-yl-ethyl)-[1,2,4]oxadiazol-3-yl]-2-(4-trifluoromethoxy-benzyl)-2,3-dihydro-isoindol-1-one], with 17 µM. `Cc1cc(-c2noc(C(C)N3CCNCC3)n2)cc2c1C(=O)N(Cc1ccc(Cl)cc1)C2` (centres unmarked) [Example 13, 2-(4-Chloro-benzyl)-7-methyl-5-[5-(1-piperazin-1-yl-ethyl)-[1,2,4]oxadiazol-3-yl]-2,3-dihydro-isoindol-1-one] displayed a hERG of 13 µM. For `Cc1cc(-c2noc(C(C)N3CCNCC3)n2)cc2c1C(=O)N([C@@H](C)c1ccc(Cl)cc1)C2` (stereo partly drawn) [Example 14, 2-[(S)-1-(4-Chloro-phenyl)-ethyl]-7-methyl-5-[5-(1-piperazin-1-yl-ethyl)-[1,2,4]oxadiazol-3-yl]-2,3-dihydro-isoindol-1-one], the hERG is 11 µM.

(Values after US20100280082A1, “Metabotropic Glutamate Receptor Oxadiazole Ligands and Their Use as Potentiators” (AstraZeneca AB, priority 2007, published 2010).)
